The values that follow come from PubChem BioAssay (NCI).

What all share (test): NCI anticancer screen, dose series, 48 h
Test [1] has as its system OVCAR-8 ovarian.
The test system of test [2] is ACHN renal.
In test [3] the test system is PC-3 prostate.
In test [4] the test system is UO-31 renal.
Test [5] concerns NCI-H23 lung.
For test [6], the system named is SK-MEL-5 melanoma.
Test [7] relates to A498 renal.
The subject of test [8] is SK-MEL-2 melanoma.
In test [9] the test system is EKVX NSCLC.

Each structure is given as a SMILES string.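 Each compound was tested at five concentrations against cells in 96-well plates for 48 hours. The concentration for full growth arrest is given as TGI.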

On to `Cn1ccnc1CCc1ccc(F)cc1F`, for which the TGI in test [1], in test [2], in test [3], in test [4], in test [5] and in test [6] was more than 100 µM each time. In addition, the TGI in [7], in test [8] and in [9] was more than 100 µM throughout.
Turning to `COc1c2occc2c(OC)c2c(=O)c(S(=O)(=O)NC(=O)Nc3ccc(Cl)cc3)coc12`, the TGI in test [1], in test [2], in test [3], in test [4], in test [5] and in test [6] was more than 10 µM each time. Moreover, the TGI in test [7], in test [8] and in test [9] was more than 10 µM throughout.
As to `O=C(NCC1Nc2ccncc2S(=O)(=O)N1)c1ccc(Br)cc1` (stereo unspecified), the TGI in [1] is more than 100 µM; in test [2] it was more than 100 µM; in test [3], 51.4 µM; in test [4], more than 100 µM; in test [5], more than 100 µM; in [6], more than 100 µM. In addition, the TGI in test [7] is more than 100 µM; in test [8], 57.4 µM; in test [9], more than 100 µM.
`COC(=O)c1c(OC(C)=O)ccc2c1c1c(OC(C)=O)c3ccccc3c(OC(C)=O)c1n2Cc1cc(OC)cc(OC)c1`: the TGI is more than 100 µM in test [1]; more than 100 µM in test [2]; more than 100 µM in test [3]; more than 100 µM in test [4]; more than 100 µM in test [5]; 24.3 µM in test [6]. Also, the TGI in [7] was determined as 89.8 µM; in test [8], 12.5 µM; in test [9], 26.7 µM.
Consider `O=C(CCc1cccc(O)c1)NCCc1cccc(O)c1`, for which the TGI in test [1], in test [2], in test [3], in test [4], in [5] and in test [6] was more than 100 µM each time. For the same compound, the TGI in [7], in [8] and in test [9] was more than 100 µM throughout.
For the compound `Brc1ccc2c(-c3nc(-c4c[nH]c5ccccc45)cs3)c[nH]c2c1`, the TGI in test [1] is more than 100 µM; in test [2], more than 100 µM; in [3], more than 91.2 µM; in test [4] it was more than 100 µM; in test [5], more than 88 µM; in test [6], 57.1 µM. In addition, the TGI in test [7] is more than 92.3 µM; in test [8], more than 84.3 µM; in test [9], more than 100 µM.
Turning to `O=C1COC(c2ccccc2O)=NN1CCCN1CCCC1`, the TGI in [1], in test [2], in test [3], in test [4], in [5] and in test [6] was more than 100 µM each time. Moreover, the TGI in [7], in [8] and in test [9] was more than 100 µM in each case.
As for `CC/C(Cl)=N\OC(=O)Nc1ccc(OC)cc1`, the TGI in test [1] turned out to be 37.4 µM; in test [2], 3.5 µM; in [3], 29.5 µM; in test [4] it was 20.8 µM; in test [5], 38.6 µM; in test [6], 14.6 µM. Moreover, the TGI amounted to 37 µM in [7], 33 µM in test [8] and 11.9 µM in [9].
For `COc1ccc(/C=N\N2CC(=O)N3C4C=CC(CC4)N3C2=O)cc1` (stereo unspecified), the TGI in test [1], in test [2], in [3], in test [4], in test [5] and in [6] was more than 100 µM each time. Further, the TGI in [7], in test [8] and in [9] was more than 100 µM in each case.
Take `Cc1c(-c2ccccc2)c(C#N)c2nnn(-c3ccccc3)c(=O)n12`: the TGI in test [1], in [2], in test [3], in test [4], in test [5] and in test [6] was more than 100 µM throughout. The TGI in test [7], in [8] and in [9] was more than 100 µM throughout.
For `O=C(O)Cc1ccc(Oc2nc3ccccc3nc2-c2cccs2)cc1`, the TGI in test [1], in [2], in test [3], in test [4], in test [5] and in test [6] was more than 100 µM each time. In addition, the results for the TGI in test [7], in [8] and in test [9] were 84.7 µM, more than 100 µM and more than 100 µM, respectively.
As to `COc1cc(Oc2nc3ccccc3nc2C(=O)O)cc(OC)c1OC`, the TGI in test [1], in test [2], in test [3], in [4], in test [5] and in test [6] was more than 100 µM throughout. Further, the TGI in [7], in test [8] and in [9] was more than 100 µM in each case.
As for `[O-][n+]1onc2c3nn(-c4ccccc4)nc3ccc21`, the TGI in test [1], in test [2], in test [3], in test [4], in [5] and in test [6] was more than 100 µM throughout. For the same compound, the TGI in [7], in test [8] and in test [9] was more than 100 µM each time.
Turning to `O=[N+]([O-])c1ccc2c(c1)nc(Cc1ccccc1)n2C[C@@H]1CCCN2CCCCC12` (stereo partly specified), the TGI in test [1] was more than 100 µM; in test [2], more than 100 µM; in [3], more than 100 µM; in [4] it was 22.8 µM; in [5], more than 100 µM; in test [6], 31.4 µM. Moreover, the TGI turned out to be 33.2 µM in test [7], 44.8 µM in test [8] and 62 µM in [9].
